Measurements taken from ChEMBL document CHEMBL4043239, “Discovery and optimization of oxadiazole-based FLAP inhibitors” (Bioorg Med Chem Lett, 2017).
Converted amounts (≈) assume the structure as drawn.

Key:
[1] = test system: Rattus norvegicus; assay: Clearance in Sprague-Dawley rat at 1 mg/kg, iv by HPLC-MS/MS analysis relative to hepatic blood flow; type: ADME, organism-based; details: in vivo
[2] = Stability in human liver microsomes at 1 uM pretreated for 10 mins followed by NADPH addition after 60 mins by LC/MS analysis relative to hepatic blood flow; type: ADME, microsome; details: read-out: Stability
[3] = Aqueous equilibrium solubility in citric acid/disodium phosphate buffer at pH 6.8 at 1 uM after 24 hrs by HPLC method; type: physicochemical; details: for solubility thermodynamic at 24 h, 1 µM: citric acid/disodium phosphate buffer, pH 6.8
[4] = Mean residence time in Sprague-Dawley rat at 1 mg/kg, iv by HPLC-MS/MS analysis; type: ADME, organism-based; details: in vivo
[5] = Oral bioavailability in Sprague-Dawley rat at 3 mg/kg by HPLC-MS/MS analysis; type: ADME, organism-based; details: in vivo
[6] = Clearance in human hepatocytes at 1 uM measured after 1 hr by LC/MS analysis relative to hepatic blood flow; type: ADME, cell-based, Hepatocyte
[7] = Aqueous kinetic solubility of the compound at pH 7.4; type: physicochemical; details: for Kinetic_solubility: buffer; for solubility kinetic: aqueous, read-out: Kinetic_solubility
[8] = molecular target: T1, Arachidonate 5-lipoxygenase-activating protein (Homo sapiens, UniProt P20292); assay: Displacement of [125I]-L-691831 from human FLAP expressed in Sf9 cell membranes after 2 hrs by Topcount method
T1 sequence (P20292 whole entry): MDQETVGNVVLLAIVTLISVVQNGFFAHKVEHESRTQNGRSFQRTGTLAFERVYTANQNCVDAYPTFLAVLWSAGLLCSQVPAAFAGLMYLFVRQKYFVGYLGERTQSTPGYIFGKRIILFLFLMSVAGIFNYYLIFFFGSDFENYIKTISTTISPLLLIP

[9] = Volume of distribution at steady state in Sprague-Dawley rat at 1 mg/kg, iv by HPLC-MS/MS analysis; type: ADME, organism-based; details: in vivo, read-out: Vdss
[10] = molecular target: T1, Arachidonate 5-lipoxygenase-activating protein; assay: Inhibition of FLAP in calcimycin-stimulated human whole blood assessed as reduction in LTB4 production pretreated for 15 mins followed by calcimycin addition after 30 mins by ELISA
[11] = molecular target: T2, hERG (KCNH2) (Homo sapiens, UniProt Q12809); assay: Inhibition of human ERG expressed in HEK293 cells at 30 uM by whole-cell patch clamp method relative to control; type: cell-based; details: HEK293 cells expressing human ERG
[12] = molecular target: T2, hERG (KCNH2); assay: Inhibition of human ERG expressed in CHO cells at 30 uM at -70mV holding potential measured after 300 secs by IonWorks electrophysiology method relative to control; type: cell-based; details: CHO cells expressing human ERG
[13] = molecular target: T2, hERG (KCNH2); assay: Inhibition of human ERG expressed in CHO cells at 10 uM at -70mV holding potential measured after 300 secs by IonWorks electrophysiology method relative to control; type: cell-based; details: CHO cells expressing human ERG
[14] = molecular target: T2, hERG (KCNH2); assay: Inhibition of human ERG expressed in CHO cells at 11 uM at -70mV holding potential measured after 300 secs by IonWorks electrophysiology method relative to control; type: cell-based; details: CHO cells expressing human ERG
[15] = molecular target: T2, hERG (KCNH2); assay: Inhibition of human ERG expressed in CHO cells at 14 uM at -70mV holding potential measured after 300 secs by IonWorks electrophysiology method relative to control; type: cell-based; details: CHO cells expressing human ERG
[16] = molecular target: T3, Arachidonate 5-lipoxygenase-activating protein (Homo sapiens) (UniProt P20292); assay: Ratio of IC50 for FLAP in calcimycin-stimulated human whole blood to IC50 for displacement of [125I]-L-691831 from human FLAP expressed in Sf9 cell membranes
T3 sequence (whole entry): T1 sequence (P20292 whole entry)

[17] = molecular target: T2, hERG (KCNH2); assay: Inhibition of human ERG expressed in CHO cells at 42 uM at -70mV holding potential measured after 300 secs by IonWorks electrophysiology method relative to control; type: cell-based; details: CHO cells expressing human ERG
[18] = molecular target: T2, hERG (KCNH2); assay: Inhibition of human ERG expressed in CHO cells at 13 uM at -70mV holding potential measured after 300 secs by IonWorks electrophysiology method relative to control; type: cell-based; details: CHO cells expressing human ERG
[19] = molecular target: T2, hERG (KCNH2); assay: Inhibition of human ERG expressed in CHO cells at 41 uM at -70mV holding potential measured after 300 secs by IonWorks electrophysiology method relative to control; type: cell-based; details: CHO cells expressing human ERG
[20] = molecular target: T2, hERG (KCNH2); assay: Inhibition of human ERG expressed in CHO cells at 33 uM at -70mV holding potential measured after 300 secs by IonWorks electrophysiology method relative to control; type: cell-based; details: CHO cells expressing human ERG
[21] = molecular target: T2, hERG (KCNH2); assay: Inhibition of human ERG expressed in CHO cells at 21 uM at -70mV holding potential measured after 300 secs by IonWorks electrophysiology method relative to control; type: cell-based; details: CHO cells expressing human ERG

T2 sequence (Q12809 whole entry): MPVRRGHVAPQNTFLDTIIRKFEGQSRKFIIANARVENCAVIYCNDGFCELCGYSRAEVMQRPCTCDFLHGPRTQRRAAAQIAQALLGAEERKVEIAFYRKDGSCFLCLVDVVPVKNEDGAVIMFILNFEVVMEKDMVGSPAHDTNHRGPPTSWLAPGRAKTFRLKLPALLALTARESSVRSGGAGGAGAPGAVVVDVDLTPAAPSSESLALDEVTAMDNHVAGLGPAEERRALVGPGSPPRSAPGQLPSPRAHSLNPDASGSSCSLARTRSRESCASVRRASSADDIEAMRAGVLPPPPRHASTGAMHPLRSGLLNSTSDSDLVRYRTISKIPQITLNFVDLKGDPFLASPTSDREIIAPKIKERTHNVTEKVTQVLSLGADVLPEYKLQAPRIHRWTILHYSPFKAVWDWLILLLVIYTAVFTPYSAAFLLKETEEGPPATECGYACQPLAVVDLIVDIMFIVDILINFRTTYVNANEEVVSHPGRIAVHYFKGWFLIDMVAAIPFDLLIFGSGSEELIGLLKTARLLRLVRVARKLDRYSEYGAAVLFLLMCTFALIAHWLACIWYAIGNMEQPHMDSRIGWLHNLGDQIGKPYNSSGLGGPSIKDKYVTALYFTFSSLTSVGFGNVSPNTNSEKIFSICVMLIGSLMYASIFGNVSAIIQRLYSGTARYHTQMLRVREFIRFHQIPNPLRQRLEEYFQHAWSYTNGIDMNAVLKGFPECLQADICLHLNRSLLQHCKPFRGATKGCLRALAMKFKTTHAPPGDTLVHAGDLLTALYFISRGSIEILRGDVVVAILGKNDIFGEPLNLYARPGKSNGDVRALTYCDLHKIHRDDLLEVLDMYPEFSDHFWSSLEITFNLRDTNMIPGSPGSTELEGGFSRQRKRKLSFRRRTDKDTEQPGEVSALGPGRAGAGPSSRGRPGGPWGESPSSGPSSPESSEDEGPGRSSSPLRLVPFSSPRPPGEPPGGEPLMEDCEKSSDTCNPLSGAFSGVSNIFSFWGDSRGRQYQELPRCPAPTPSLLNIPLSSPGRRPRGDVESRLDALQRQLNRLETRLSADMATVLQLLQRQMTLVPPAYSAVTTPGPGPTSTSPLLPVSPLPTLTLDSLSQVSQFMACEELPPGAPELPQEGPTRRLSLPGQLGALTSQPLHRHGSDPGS

Row | Compound | hepatic extraction ratio at 1 h, 1 µM [2] | IC50 [8] | IC50 [10] | solubility kinetic [7] | also measured
1 | CC(C)[C@](C)(c1ccc(-c2cnc(N)nc2)nc1)c1noc(-c2cnn(CC(C)(C)O)c2)n1 | < 0.3 | 13 nM | 41 nM | – | CL [1]: 10%; solubility thermodynamic at 24 h, 1 µM [3]: 210 µg/mL (≈ 468 µM); MRT [4]: 4.6 h; bioavailability [5]: 114%; hepatic extraction ratio at 1 h, 1 µM [6]: 0.3; Kinetic_solubility [7]: Soluble; Vd [9]: 2 L/kg; inhibition at 30 µM [11]: 21%
2 | CC1(O)CCN(c2nc([C@@](C)(c3ccc(-c4cnc(N)nc4)nc3)C3CC3)no2)CC1 | – | 97 nM | 115 nM | – | inhibition at 5 min, 30 µM [12]: 17%
3 | Cn1cc(-c2nc([C@@](C)(c3ccc(-c4cnc(N)nc4)nc3)C3CC3)no2)cn1 | < 0.3 | 3 nM | 26 nM | – | hepatic extraction ratio at 1 h, 1 µM [6]: 0.59; inhibition at 5 min, 10 µM [13]: 13%
4 | Cn1cc(-c2nc(C3(c4ccc(-c5cnc(N)nc5)cc4)CCC3)no2)cn1 | – | – | – | 14 µg/mL (≈ 37.5 µM) | inhibition at 5 min, 11 µM [14]: 25%
5 | CC(C)OC1CCN(c2nc(C3(c4ccc(-c5cnc(N)nc5)cc4)CCC3)no2)CC1 | 0.37 | 48 nM | 174 nM | 16 µg/mL (≈ 36.8 µM) | inhibition at 5 min, 14 µM [15]: 85%
6 | Nc1ncc(-c2ccc(C3(c4noc(N5CCNCC5)n4)CCC3)cc2)cn1 | 0.35 | 324 nM | 680 nM | > 37 µg/mL | Ratio IC50 [16]: 2
7 | CC(C)(O)Cn1cc(-c2nc([C@@](C)(c3ccc(-c4cnc(N)nc4)nc3)C3CC3)no2)cn1 | – | – | – | – | solubility thermodynamic at 24 h, 1 µM [3]: 26 µg/mL (≈ 58.2 µM); Kinetic_solubility [7]: Soluble; inhibition at 5 min, 42 µM [17]: 34%
8 | Nc1ncc(-c2ccc(C3(c4noc(-c5cnn(C6COC6)c5)n4)CCC3)cn2)cn1 | < 0.24 | – | 71 nM | 25 µg/mL (≈ 60 µM) | inhibition at 5 min, 11 µM [14]: < 10%
9 | Nc1ncc(-c2ccc(C3(c4noc(N5CCC(O)CC5)n4)CCC3)cn2)cn1 | – | – | 595 nM | – | inhibition at 5 min, 30 µM [12]: 51%
10 | Nc1ncc(-c2ccc(C3(c4noc(N5CCC(CO)CC5)n4)CCC3)cc2)cn1 | 0.36 | 46 nM | 173 nM | 14 µg/mL (≈ 34.4 µM) | inhibition at 5 min, 13 µM [18]: 68%
11 | CN(C)C(=O)N1CCN(c2nc([C@@](C)(c3ccc(-c4cnc(N)nc4)cc3)C3CC3)no2)CC1 | 0.52 | 12 nM | 58 nM | – | inhibition at 5 min, 30 µM [12]: 36%; solubility ([3]; buffer, pH 6.8, 24 h, 1 µM): Soluble; Kinetic_solubility [7]: Soluble
12 | C[C@@](c1ccc(-c2cnc(N)nc2)nc1)(c1noc(N2CCC(O)CC2)n1)C1CC1 | – | 434 nM | 324 nM | – | inhibition at 5 min, 41 µM [19]: 17%
13 | Nc1ncc(-c2ccc(C3(c4noc(N5CCCCC5)n4)CCC3)cc2)cn1 | – | – | 387 nM | 4.1 µg/mL (≈ 10.9 µM) | Ratio IC50 [16]: 59; inhibition at 5 min, 33 µM [20]: 92%
14 | CC1(O)CCN(c2nc([C@@](C)(c3ccc(-c4cnc(N)nc4)cc3)C3CC3)no2)CC1 | 0.58 | 5.6 nM | 13 nM | – | inhibition at 5 min, 21 µM [21]: 31%
15 | CC(C)[C@](C)(c1ccc(-c2cnc(N)nc2)nc1)c1noc(-c2cnn(C3COC3)c2)n1 | < 0.3 | 6.6 nM | 37 nM | – | solubility thermodynamic at 24 h, 1 µM [3]: 84 µg/mL (≈ 194 µM); hepatic extraction ratio at 1 h, 1 µM [6]: 0.34; Kinetic_solubility [7]: Soluble; inhibition at 30 µM [11]: 24%
